Measured values from patent US8911771B2, “Fluid application device and method” (Otsuka America Pharmaceutical, Inc., priority 2004, dated 2014).

System: wide range of bacteria (1050 organisms; clinical isolates from a number of bacterial and fungal species)
Test: in vitro minimum inhibitory concentration (MIC) testing
Assay type: cell-based
Details: concentration of olanexidine solution inhibiting >95% of 1050 organisms
From the text: The bacteria included in the MIC testing study included clinical isolates from a number of bacterial and fungal species. The MIC method is a widely accepted methodology that is useful for determining and comparing in vitro antimicrobial activity, while the Pig Skin Model is useful for determining activity under simulated conditions of use. The following chart summarizes the results obtained with the Pig Skin Model: […]

MIC: ≤ 32 µg/mL
Compound: CCCCCCCCNC(=N)NC(=N)NCc1ccc(Cl)c(Cl)c1 [olanexidine, 1-(3,4-dichlorobenzyl)-5-octylbiguanide]
